How the values were obtained:
Type in all cases: physicochemical
[1] = Single-stage extraction: partitioning of dicofol technical between n-heptane and 90% aqueous methanol
Procedure: A 50g sample of the desired dicofol solution was taken in a stoppered 100 ml graduated cylinder. […] They were then shaken well for two minutes. The samples were placed in an ice-water bath for 30 minutes. After the cooling period all samples were again shaken for 2 minutes. The samples were returned to the bath and allowed to equilibrate for 30 minutes. The samples were then removed from the bath and volumes recorded (Table I - Columns 2 and 3). The layers were then separated and each layer weighed (Columns 4 and 5). The separated layers were concentrated under vacuum (70°C, 1 mm Hg), weighed (columns 6 and 7) and analyzed (Table II).
In subsequent experiments, the partitioning of dicofol technical between n-heptane and 90% aqueous methanol was also evaluated at 23°C. The combined results from the 0°C and 23°C experiments are presented in Table IV where the results are expressed as distribution coefficients for dicofol and the two principal DDTr's found in dicofol technical, o,p'-DDE and p,p'-Cl-DDT. In all cases, the extractability of DDTr's exceeded that of dicofol by a significant margin.

[2] = Single-stage extraction: dicofol technical in aqueous methanols of various water content contacted with n-heptane; details: 50g of 33% solution of dicofol technical, 40 g n-heptane, 23°C
Procedure: The effect on distribution coefficients and selectivities of the amount of water in the methanol was determined. […] All distribution coefficients rise as the percentage of water increases. The selectivities rise initially but then begin to decrease at water levels higher than a maximum range. Importantly, if the water in the methanol is omitted, the addition of practical concentrations of dicofol technical causes the phases to coalesce.

[3] = Single-stage extraction: dicofol technical in aqueous ethanol of various concentrations partitioned with heptane; details: 30% dicofol technical solution, 50 grams, 40 grams heptane, 23°C
Procedure: Alternative solvent systems were evaluated. The distribution coefficients were determined by partitioning dicofol technical.
In Table VII, n-heptane was used as the extractant and different raffinate phase solvents were evaluated. In Table VIII, ethanol was used as the raffinate solvent and different extracting solvents were evaluated. In Table IX, n-heptane was used as the extractant and ethanol at different aqueous concentrations was used as the raffinate solvent. In the experiments set forth in Table IX, 30% dicofol technical solution (in the raffinate layer) was used and 50 grams of this solution was partitioned with 40 grams of the extracting solvent. In Table X, methanol was used as the raffinate solvent and different extracting solvents were evaluated. And in Table XI, using n-heptane as the extracting solvent and aqueous methanol as the raffinate solvent, the partition coefficients were determined as a function of temperature and concentration of dicofol.

[4] = dicofol technical spiked with 0.25 Wt % p,p'-DDD and separately p,p'-DDT, 50g of 33% solution in 90% aqueous methanol, 40g n-heptane, 23°C
[5] = dicofol technical spiked with 0.72 Wt % p,p'-DDD and separately p,p'-DDT, 50g of 33% solution in 90% aqueous methanol, 40g n-heptane, 23°C
[6] = dicofol technical spiked with 1.80 Wt % p,p'-DDD and separately p,p'-DDT, 50g of 33% solution in 90% aqueous methanol, 40g n-heptane, 23°C
[7] = heptane layer / raffinate layer, 50 g of dicofol solution conc. 8.4 in 90% aqueous methanol, 20 g heptane, 0 °C
[8] = heptane layer / raffinate layer, 50 g of dicofol solution conc. 10 in 90% aqueous methanol, 40 g heptane, 23 °C
[9] = heptane layer / raffinate layer, 50 g of dicofol solution conc. 16.7 in 90% aqueous methanol, 20 g heptane, 0 °C
[10] = heptane layer / raffinate layer, 50 g of dicofol solution conc. 16.7 in 90% aqueous methanol, 20 g heptane, 23 °C
[11] = heptane layer / raffinate layer, 50 g of dicofol solution conc. 20 in 90% aqueous methanol, 40 g heptane, 23 °C
[12] = heptane layer / raffinate layer, 50 g of dicofol solution conc. 30 in 90% aqueous methanol, 40 g heptane, 23 °C
[13] = heptane layer / raffinate layer, 50 g of dicofol solution conc. 33 in 90% aqueous methanol, 20 g heptane, 0 °C
[14] = heptane layer / raffinate layer, 50 g of dicofol solution conc. 40 in 90% aqueous methanol, 40 g heptane, 23 °C
[15] = heptane layer / raffinate layer, 50 g of dicofol solution conc. 50 in 90% aqueous methanol, 20 g heptane, 0 °C
[16] = heptane layer / raffinate layer, 50 g of dicofol solution conc. 50 in 90% aqueous methanol, 40 g heptane, 23 °C
[17] = ratio of DDTr D.C. to that of dicofol, dicofol solution conc. 8.4 in 90% aqueous methanol, 20 g heptane, 0 °C
[18] = ratio of DDTr D.C. to that of dicofol, dicofol solution conc. 10 in 90% aqueous methanol, 40 g heptane, 23 °C
[19] = ratio of DDTr D.C. to that of dicofol, dicofol solution conc. 16.7 in 90% aqueous methanol, 20 g heptane, 0 °C
[20] = ratio of DDTr D.C. to that of dicofol, dicofol solution conc. 16.7 in 90% aqueous methanol, 20 g heptane, 23 °C
[21] = ratio of DDTr D.C. to that of dicofol, dicofol solution conc. 20 in 90% aqueous methanol, 40 g heptane, 23 °C
[22] = ratio of DDTr D.C. to that of dicofol, dicofol solution conc. 30 in 90% aqueous methanol, 40 g heptane, 23 °C
[23] = ratio of DDTr D.C. to that of dicofol, dicofol solution conc. 33 in 90% aqueous methanol, 20 g heptane, 0 °C
[24] = ratio of DDTr D.C. to that of dicofol, dicofol solution conc. 40 in 90% aqueous methanol, 40 g heptane, 23 °C
[25] = ratio of DDTr D.C. to that of dicofol, dicofol solution conc. 50 in 90% aqueous methanol, 20 g heptane, 0 °C
[26] = ratio of DDTr D.C. to that of dicofol, dicofol solution conc. 50 in 90% aqueous methanol, 40 g heptane, 23 °C

Compound: ClC(Cl)=C(c1ccc(Cl)cc1)c1ccccc1Cl [o,p'-DDE]
- Distribution coefficient (D.C.) [1, 4]: 2.4
- Selectivity (Sel.) [1, 4]: 7.6
- Distribution coefficient (D.C.) [1, 5]: 2.4
- Selectivity (Sel.) [1, 5]: 7.2
- Distribution coefficient (D.C.) [1, 6]: 2.4
- Selectivity (Sel.) [1, 6]: 6.8
- Distribution coefficient (D.C.) [1, 7]: 3.6
- Distribution coefficient (D.C.) [1, 8]: 3.9
- Distribution coefficient (D.C.) [1, 9]: 3.2
- Distribution coefficient (D.C.) [1, 10]: 3.4
- Distribution coefficient (D.C.) [1, 11]: 3.5
- Distribution coefficient (D.C.) [1, 12]: 2.4
- Distribution coefficient (D.C.) [1, 13]: 1.8
- Distribution coefficient (D.C.) [1, 14]: 2.32
- Distribution coefficient (D.C.) [1, 15]: 1.3
- Distribution coefficient (D.C.) [1, 16]: 1.66
- Selectivity (Sel.) [1, 17]: 17.3
- Selectivity (Sel.) [1, 18]: 12.2
- Selectivity (Sel.) [1, 19]: 16.1
- Selectivity (Sel.) [1, 20]: 10.1
- Selectivity (Sel.) [1, 21]: 11.0
- Selectivity (Sel.) [1, 22]: 7.9
- Selectivity (Sel.) [1, 23]: 10.5
- Selectivity (Sel.) [1, 24]: 7.2
- Selectivity (Sel.) [1, 25]: 7.9
- Selectivity (Sel.) [1, 26]: 5.3
- Distribution coefficient (D.C.) ([2]; 4 % H₂O in Aq. MeOH): 1.5
- Selectivity (Sel.) ([2]; 4 % H₂O in Aq. MeOH): 5.7
- Distribution coefficient (D.C.) ([2]; 8 % H₂O in Aq. MeOH): 2.2
- Selectivity (Sel.) ([2]; 8 % H₂O in Aq. MeOH): 7.7
- Distribution coefficient (D.C.) ([2]; 12 % H₂O in Aq. MeOH): 3.1
- Selectivity (Sel.) ([2]; 12 % H₂O in Aq. MeOH): 8.3
- Distribution coefficient (D.C.) ([2]; 16 % H₂O in Aq. MeOH): 3.6
- Selectivity (Sel.) ([2]; 16 % H₂O in Aq. MeOH): 6.1
- Distribution coefficient (D.C.) ([3]; 85% aqueous ethanol): 2.06
- Selectivity (Sel.) ([3]; 85% aqueous ethanol): 2.78
- Distribution coefficient (D.C.) ([3]; 87% aqueous ethanol): 1.28
- Selectivity (Sel.) ([3]; 87% aqueous ethanol): 2.01
- Distribution coefficient (D.C.) ([3]; 90% aqueous ethanol): 1.08
- Selectivity (Sel.) ([3]; 90% aqueous ethanol): 1.42

Compound: Clc1ccc(C(Cl)(c2ccc(Cl)cc2)C(Cl)(Cl)Cl)cc1 [p,p'-Cl-DDT, 1,1-bis-(4-chlorophenyl)-1,2,2,2-tetrachloroethane]
- Distribution coefficient (D.C.) [1, 4]: 3.7
- Selectivity (Sel.) [1, 4]: 11.8
- Distribution coefficient (D.C.) [1, 5]: 3.8
- Selectivity (Sel.) [1, 5]: 11.4
- Distribution coefficient (D.C.) [1, 6]: 3.8
- Selectivity (Sel.) [1, 6]: 10.8
- Distribution coefficient (D.C.) [1, 7]: 9.1
- Distribution coefficient (D.C.) [1, 8]: 7.5
- Distribution coefficient (D.C.) [1, 9]: 4.4
- Distribution coefficient (D.C.) [1, 10]: 4.1
- Distribution coefficient (D.C.) [1, 11]: 5.3
- Distribution coefficient (D.C.) [1, 12]: 4.0
- Distribution coefficient (D.C.) [1, 13]: 2.6
- Distribution coefficient (D.C.) [1, 14]: 2.8
- Distribution coefficient (D.C.) [1, 15]: 1.5
- Distribution coefficient (D.C.) [1, 16]: 2.1
- Selectivity (Sel.) [1, 17]: 23.3
- Selectivity (Sel.) [1, 18]: 23.4
- Selectivity (Sel.) [1, 19]: 22.4
- Selectivity (Sel.) [1, 20]: 12.2
- Selectivity (Sel.) [1, 21]: 16.8
- Selectivity (Sel.) [1, 22]: 13.1
- Selectivity (Sel.) [1, 23]: 14.9
- Selectivity (Sel.) [1, 24]: 8.6
- Selectivity (Sel.) [1, 25]: 9.4
- Selectivity (Sel.) [1, 26]: 6.8
- Distribution coefficient (D.C.) ([2]; 4 % H₂O in Aq. MeOH): 1.9
- Selectivity (Sel.) ([2]; 4 % H₂O in Aq. MeOH): 7.0
- Distribution coefficient (D.C.) ([2]; 8 % H₂O in Aq. MeOH): 2.9
- Selectivity (Sel.) ([2]; 8 % H₂O in Aq. MeOH): 10.1
- Distribution coefficient (D.C.) ([2]; 12 % H₂O in Aq. MeOH): 4.6
- Selectivity (Sel.) ([2]; 12 % H₂O in Aq. MeOH): 12.2
- Distribution coefficient (D.C.) ([2]; 16 % H₂O in Aq. MeOH): 6.8
- Selectivity (Sel.) ([2]; 16 % H₂O in Aq. MeOH): 11.4
- Distribution coefficient (D.C.) ([3]; 85% aqueous ethanol): 1.65
- Selectivity (Sel.) ([3]; 85% aqueous ethanol): 2.22
- Distribution coefficient (D.C.) ([3]; 87% aqueous ethanol): 1.48
- Selectivity (Sel.) ([3]; 87% aqueous ethanol): 2.33
- Distribution coefficient (D.C.) ([3]; 90% aqueous ethanol): 0.91
- Selectivity (Sel.) ([3]; 90% aqueous ethanol): 1.20

Compound: Clc1ccc(C(c2ccc(Cl)cc2)C(Cl)Cl)cc1 [p,p'-DDD, 1,1-bis-(4-chlorophenyl)-2,2-dichloroethane]
- Distribution coefficient (D.C.) [1, 4]: 0.66
- Selectivity (Sel.) [1, 4]: 2.1
- Distribution coefficient (D.C.) [1, 5]: 0.71
- Selectivity (Sel.) [1, 5]: 2.1
- Distribution coefficient (D.C.) [1, 6]: 0.79
- Selectivity (Sel.) [1, 6]: 2.2

Compound: Clc1ccc(C(c2ccc(Cl)cc2)C(Cl)(Cl)Cl)cc1 [p,p'-DDT, 1,1-bis-(4-chlorophenyl)-2,2,2-trichloroethane]
- Distribution coefficient (D.C.) [1, 4]: 1.9
- Selectivity (Sel.) [1, 4]: 5.9
- Distribution coefficient (D.C.) [1, 5]: 1.9
- Selectivity (Sel.) [1, 5]: 5.6
- Distribution coefficient (D.C.) [1, 6]: 2.1
- Selectivity (Sel.) [1, 6]: 6.0

From patent publication EP0248954B1, “Process for reducing the amount of DDT-related impurities in 1,1-bis(chlorophenyl)-2,2,2-trichloro-ethanol” (ROHM AND HAAS COMPANY, priority 1986, dated 1987)
